Laboratory results: ChEMBL document CHEMBL1137119, “Design and synthesis of 3-(2-pyridyl)pyrazolo[1,5-a]pyrimidines as potent CRF1 receptor antagonists” (Bioorg Med Chem Lett, 2004)

Assays:
[1] = molecular target: T1, Corticotropin-releasing factor receptor 1 (Homo sapiens, UniProt P34998); test: Binding affinity for recombinant human CRF1 receptor
T1 sequence (P34998 whole entry): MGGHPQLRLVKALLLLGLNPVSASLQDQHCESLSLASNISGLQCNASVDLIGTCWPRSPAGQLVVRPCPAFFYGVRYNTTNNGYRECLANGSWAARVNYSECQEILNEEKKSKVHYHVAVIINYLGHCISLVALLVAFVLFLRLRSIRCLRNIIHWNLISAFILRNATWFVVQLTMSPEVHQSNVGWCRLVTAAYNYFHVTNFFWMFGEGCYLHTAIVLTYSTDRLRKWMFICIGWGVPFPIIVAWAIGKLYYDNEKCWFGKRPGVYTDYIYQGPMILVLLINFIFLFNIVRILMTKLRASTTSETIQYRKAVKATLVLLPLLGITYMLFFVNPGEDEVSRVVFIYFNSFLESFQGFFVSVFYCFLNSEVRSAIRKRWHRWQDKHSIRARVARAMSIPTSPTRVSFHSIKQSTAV

[2] = molecular target: T1, Corticotropin-releasing factor receptor 1; test: Inhibition of CRF-stimulated cAMP production in cells expressing CRF1 receptor

Row | Structure (SMILES) | Ki [1] [nM] | IC50 [2] [nM]
1 | CCCN(CCOC)c1cc(C)nc2c(-c3ncc(Cl)cc3Cl)c(C)nn12 | 3.2 | 
2 | CCCCN(CCC)c1cc(C)nc2c(-c3ncc(C(F)(F)F)cc3Cl)c(C)nn12 | 1.2 | 
3 | CCCN(CCC)c1cc(C)nc2c(-c3ncc(Cl)cc3C)c(C)nn12 | 6.7 | 
4 | CCCN(CCC)c1cc(C)nc2c(-c3ncc(N=O)cc3C)c(C)nn12 | 100 | 
5 | CCCN(CCC)c1cc(C)nc2c(-c3ncc(C)cc3N=O)c(C)nn12 | > 10000 | 
6 | CCCN(CCC)c1cc(C)nc2c(-c3ncc(NC)cc3C)c(C)nn12 | 40 | 
7 | CCCN(CCC)c1cc(C)nc2c(-c3ncc(O)cc3C)c(C)nn12 | 530 | 
8 | CCCN(CCC)c1cc(C)nc2c(-c3ncc(I)cc3C)c(C)nn12 | 6.6 | 
9 | CCCN(CCC)c1cc(C)nc2c(-c3ncc(C)cc3[N+](=O)[O-])c(C)nn12 | 14 | 
10 | CCCN(CCC)c1cc(C)nc2c(-c3ncc(N)cc3C)c(C)nn12 | 85 | 
11 | CCCN(CCC)c1cc(C)nc2c(-c3ncc(OC)cc3C)c(C)nn12 | 10 | 
12 | CCCN(CCC)c1cc(C)nc2c(-c3ncc(C)cc3O)c(C)nn12 | > 10000 | 
13 | CCCN(CCC)c1cc(C)nc2c(-c3ncc(C)cc3N(C)C)c(C)nn12 | 23 | 
14 | CCCCN(CCCC)c1cc(C)nc2c(-c3ncc(C(F)(F)F)cc3Cl)c(C)nn12 | 1.1 | 
15 | CCCN(CCC)c1cc(C)nc2c(-c3ncc([N+](=O)[O-])cc3C)c(C)nn12 | 9.1 | 180
16 | CCCN(CCC)c1cc(C)nc2c(-c3ncc(C)cc3OC)c(C)nn12 | 25 | 

Row | Structure (SMILES) | Ki [1] [nM] | IC50 [2] [nM]
17 | CCCN(CCC)c1cc(C)nc2c(-c3ncc(N(C)C)cc3C)c(C)nn12 | 10 | 150
18 | CCCN(CCC)c1cc(C)nc2c(-c3ncc(Cl)cc3Cl)c(C)nn12 | 3.2 | 49
19 | CCCN(CCC)c1cc(C)nc2c(-c3ncc(N(CC)CC)cc3C)c(C)nn12 | 13 | 
20 | CCCN(CCC)c1cc(C)nc2c(-c3ncc(C)cc3NC)c(C)nn12 | 13 | 
21 | CCCN(CCC)c1cc(C)nc2c(-c3ncc(C)cc3N)c(C)nn12 | 40 | 
22 | CCCN(CCC)c1cc(C)nc2c(-c3ncc(F)cc3C)c(C)nn12 | 19 | 
23 | CCCN(CCC)c1cc(C)nc2c(-c3ccc(Cl)cn3)c(C)nn12 | 88 | 
24 | CCCN(Cc1ccccc1)c1cc(C)nc2c(-c3ncc(C(F)(F)F)cc3Cl)c(C)nn12 | 1.7 | 
25 | CCCN(CC1CC1)c1cc(C)nc2c(-c3ncc(C(F)(F)F)cc3Cl)c(C)nn12 | 0.8 | 
26 | COCCN(CCOC)c1cc(C)nc2c(-c3ncc(Cl)cc3Cl)c(C)nn12 | 78 | 
27 | CCCN(CCC)c1cc(C)nc2c(-c3ncccc3C)c(C)nn12 | 110 | 
28 | CCCN(CCC)c1cc(C)nc2c(-c3ncc(C(F)(F)F)cc3Cl)c(C)nn12 | 1.2 | 
29 | CCCN(CCC)c1cc(C)nc2c(-c3ncc(C)cc3Cl)c(C)nn12 | 6.2 | 
30 | CCCN(CCC)c1cc(C)nc2c(-c3ncc(N4CCCCC4)cc3C)c(C)nn12 | 17 | 
31 | CCCN(CC1CC1)c1cc(C)nc2c(-c3ncc(Cl)cc3Cl)c(C)nn12 | 3.9 | 
